One data set has as its system Pseudomona aeruginosa. Nature of the data set: Microbiological sensitivity assay. It counts as cell-based. An excerpt:
Culture Medium for Pseudomona aeruginosa (USP 23 <81>) • Pancreatic digestive Caseine . . . 17.0 g • soy Papaine digestive . . . 3.0 g • Sodium Chloride . . . 5.0 g • Dibasic Potassium Phosphate . . . 2.5 g • Dextrose . . . 2.5 g • Agar . . . 20.0 g • Water to make about . . . 1.0 Lit • pH after sterilized 7.2±0.1

Data set [1] is described as follows: Rats infected in surgery, then treated. It counts as in vivo. The text has this: The high activity of these lactones against Escherichia coli, Klebsiela pneumoniae, Pseudomona aeruginosa, Staphylococo aureus, among others, and its low molecular weight, are advantageous.
Data set [2] has as its system C-33 (HPV-negative) human cervical cancer cells. Nature of the data set: In vitro cytotoxicity / anti-proliferative activity. The class given is cell-based.
Description: (§5) Four tumor cell lines, including human prostate cancers PC-4 (androgen-insensitive) and LnCaP (androgen-insensitive) and human cervical cancers CaSKi (human papilloma virus-(HPV) Type-16 positive] and C-33 (HPV-negative), were cultured in RPMI-10% bovine serum, glutamine and antibiotics at 5% CO2 an 37 degrees Celsius.
(§6) The lethal dosages for each cell line is listed below:
The subject of the next data set is Escherichia coli. Put plainly: Microbiological sensitivity assay. It counts as cell-based. An excerpt:
(§1) Culture Medium for E. coli and k. neumoniae (according to USP 23 <81>) • Peptone . . . 5.0 g • Yeast Extract . . . 1.5 g • Beef Extract . . . 1.5 g • Sodium Chloride . . . 3.5 g • Dextrose . . . 1.0 g • Dibasic Potassium Phosphate . . . 3.68 g • Monobasic Potassium Phosphate . . . 1.32 g • Water To make about . . . 1.0 L • pH after sterilized 7.0±0.05 Antibacterial Activity Assays (Minimum Inhibitory Concentration, MIC)

The next data set has as its system Klebsiela pneumoniae. Nature of the data set: Microbiological sensitivity assay. It counts as cell-based.
Source text: as §1

In data set [3] the test system is LnCaP human prostate cancer cells. Put plainly: In vitro cytotoxicity / anti-proliferative activity. The class given is cell-based.
Description: as §5, §6
In another data set the test system is Staphylococcus aureus. Nature of the data set: Microbiological sensitivity assay. It counts as cell-based. An excerpt: Culture Medium for Staphylococo aureus (USP 23 <81>) • Peptone . . . 1.0 g • Digestive pancreatic Caseine . . . 4.0 g • Yeast Extract . . . 3.0 g • Beef Extract . . . 1.5 g • Dextrose . . . 1.0 g • Agar . . . 15.0 g • Water to make about . . . 1.0 Lit • pH after sterilized 6.6±0.1

Data set [4] has as its system PC-4 human prostate cancer cells. Nature of the data set: In vitro cytotoxicity / anti-proliferative activity. The class given is cell-based.
Description: as §5, §6
Data set [5] in a line: Study of adverse reactions in healthy volunteers. The class given is in vivo. An excerpt: Nineteen healthy volunteers participated in the study. The age of the participants was between 21 and 40 years with an average of 30.5±7.2 years. The weight was between 150 and 190 pounds with a median of 163.2±14.3 pounds and the height was 1.8 to 2.1 meters with an average of 1.9±0.1 meters. The subjects were selected at random in agreement with the national and international criteria and norms established for investigations with human beings.
The state of health of the participants was established using several clinical evaluations, laboratory tests, electrocardiographs and thoracic radiographs. The functionality of the liver and the renal systems was verified by chemical-enzymatic studies. Likewise, for each participant we carried out tests of blood chemistry, pathology and urinalysis. For the females, the absence of pregnancy and/or lactation was verified by means of laboratory tests and gynecological evaluation.
Participants were divided into three groups selected at random (n=6): • Group I (placebo) received 2.0 ml of saline solution (ClNa^+, 0.9%), Group II, received 60 mg of LMSV-6 intramuscularly, and Group III (n=7) received 100 mg of LMSV-6 intramuscularly. The participants underwent several tests used to establish the basal values of the objective parameters of the analysis, which included:
Lab Studies: hemogram, blood chemistry, urinalysis and coproanalysis
Cardiovascular Function: arterial tension (TA), cardiac rhythm (RC), cardiac frequency (FC) and radial pulse (PR)
Pulmonary Functions: pulmonary respiration (VP) and respiratory frequency (FR)
Renal Function: urinary volume and urinary frequency (FU)
Sensory System: hearing, vision, smell, taste and sensory reflexes
Skin and/or Teguments: sensitivity, skin texture, temperature and musculo-skeletal tone
Neurovegetative Functions: salivary gland and sweat gland activities, gastrointestinal […] and visceral reflexes
Hypersensitivity Reactions: local sensitivity and systemic sensitivity.

Data set [6] relates to PC-4, LnCaP, CaSKi and C-33 tumor cell lines. The following applies: curves of 1000 μg LMSV-6 and 1000 μM tamoxifen; cell line not stated. The procedure:
Four tumor cell lines, including human prostate cancers PC-4 ([…]) and LnCaP ([…]) and human cervical cancers CaSKi (human papilloma virus-(HPV) Type-16 positive] and C-33 (HPV-negative), were cultured in RPMI-10% bovine serum, glutamine and antibiotics at 5% CO2 an 37 degrees Celsius.

Data set [7] has as its system CaSKi (HPV Type-16 positive) human cervical cancer cells. Nature of the data set: In vitro cytotoxicity / anti-proliferative activity. It counts as cell-based.
Description: as §5, §6
The subject of another data set is Sarcina lutea. Put plainly: Disc zone of inhibition / MIC tests No. 1-3, poured in plate, Mueler Hinton pH 8. It counts as cell-based. The following applies: for zone of inhibition at 10 µg/disc: Micrococcus luteus; for zone of inhibition at 10 µg/disc / P (mm), zone of inhibition: pattern disc with 10 μg.
In data set [8] the test system is Salmonella typhimurium TA100. Put plainly: Ames test. The class given is cell-based. To be noted: ≦100 μg/mL. On the procedure: (§2) This study was performed in accordance with the norms of USC 79/831, which establishes the guidelines for toxicological analytical methods.
(§3) The Ames test detects drug-induced ‘reverting mutations’ in previously mutated strains of Salmonella typhimurium, all of which have the rfa mutation that makes their cell membranes permeable to chemical agents. […] The presence of these mutations incapacitates the growth of these cells in a histidine-poor culture medium.
(§4) A drug is said to be mutagenic if it causes a greater than 2-fold increase in the number of colonies growing in histidine-poor medium.
For orientation: The Ames test uses bacterial strains that need an amino acid and regain growth without it when mutated back.

The subject of data set [9] is Salmonella typhimurium TA98. Put plainly: Ames test. To be noted: 1 or 10 μg/mL. It counts as cell-based. The procedure: as §2, §3, §4
[10] abbreviates: anti-proliferative activity after 72 hours.

“And” between values parts separate entries of the source, which are not always exact repeats. Equal values may be shown once. Read-outs that look alike come from different tables or passages of the source.

Regarding `C=C1CCOC1=O` [LMSV-6, 4,5-dihydro-3-methylene-2[3H]furanone], the “Activity against Pseudomona aeruginosa” value in the data set with Pseudomona aeruginosa is “high activity”. Further, the “Treatment of developed infection” value in data set [1] is given as “successfully treated”. Also, the “LD50, cytotoxicity” value in [2] (after 4 hours) was 538 µM; in data set [3] (LnCaP, after 4 hours), > 1,982 μM; in [4] (after 4 hours) it was > 1,982 μM; in [7] (after 4 hours), > 1,982 μM. The “LD50” value stood at 7.10 µM in data set [2] (setting [10]); 26.5 µM in [3] (LNCaP, anti-proliferative activity after 72 hours); 59.2 µM in data set [4] (setting [10]); 64.3 µM in data set [7] (setting [10]). For the same molecule, the “Activity against Escherichia coli” value in the data set with Escherichia coli is reported as “high activity”. Besides, the “Activity against Klebsiela pneumoniae” value with Klebsiela pneumoniae was “high activity”. Also, in the data set with Staphylococcus aureus, the “Activity against Staphylococcus aureus” value is reported as “high activity”. The “Respiratory frequency (FR)” value in [5] (during the entire test) fell in the range of 18 to 20 respirations per minute. Also, the Adverse reactions entry in [5] (human, in vivo) was “no evidence, sign or symptom of adverse reactions”. The “Allergic effects (reactivity), local and systemic” value in data set [5] (human, in vivo) is recorded as “not any manifestation of allergic reactions”. Further, the “Cutaneous sensitivity and temperature” value in data set [5] (human, in vivo) is given as “did not provoke any change”. The Electrocardiograph pattern entry in data set [5] (human, in vivo) was “no variation”. For the same molecule, the “Mental state and sensory acuteness (auditory, visual, olfactory, taste)” value in [5] (human, in vivo) is listed as “did not provoke any alteration”. Besides, the “Respiratory mechanics and dynamics” value in data set [5] (human, in vivo) is “did not alter”. In addition, the “Tolerance of maximum dosage tested” value in [5] (human, in vivo) was “well tolerated”. Moreover, the “LD50 from curves of percent inhibition of proliferation” value in data set [6] stood at 528 µM. The “S (mm), zone of inhibition” value with Sarcina lutea (Test No 2, 16.0 microliters/100 mL and 10 μL applied to sensibility disc) is 20 mm and 23 mm and 19 mm; in the data set with Sarcina lutea (Test No. 1, 5 pure μL applied to sensibility disc), 40 mm and 44 mm and 43 mm; in the data set on Sarcina lutea (Test No. 3, 10 microliters/10 mL and 20 μL applied to sensibility disc), 3 mm and 4 mm. For the same molecule, the “S (mm), total of the three zones” value is listed as 62 mm with Sarcina lutea (Test No 2, 16.0 microliters/100 mL, 10 μL applied, unlabelled sum line); 127 mm in the data set with Sarcina lutea (Test No. 1, 5 pure μL, unlabelled sum line); 10 mm in the data set on Sarcina lutea (Test No. 3, 10 microliters/10 mL, 20 μL applied, unlabelled sum line). In the data set on Sarcina lutea (Test No. 1, versus ceftriaxone 10 μg disc), the “Sample zone of inhibition relative to pattern” value was “three times bigger”. Also, the results for the “Zone of Inhibition” value in the data set with Sarcina lutea (applied volume to disc 0.2 μL (MIC)), in the data set on Sarcina lutea (applied volume to disc 1.6 M) and in the data set with Sarcina lutea (applied volume to disc 5 μL) were 3.3 mm, 20.0 mm and 42.0 mm, respectively. Further, in the data set on Sarcina lutea (volume applied to disc), the “Minimum Inhibitory Concentration (MIC)” value was around 0.2 µL. In addition, the “Colony count in histidine-poor medium” value in data set [8] and in data set [9] was “did not increase normal colony count” throughout.
Consider `CO/N=C(\C(=O)N[C@@H]1C(=O)N2C(C(=O)O)=C(CSc3nc(=O)c(=O)[nH]n3C)CS[C@H]12)c1csc(N)n1` [Ceftriaxone, reference compound], for which the zone of inhibition at 10 µg/disc amounted to 18 mm in the data set with Sarcina lutea (Test No 2, read-out: P (mm), zone of inhibition); 49 mm in the data set with Sarcina lutea (Test No 2, unlabelled sum line, read-out: P (mm), total of the three zones); 12 mm in the data set on Sarcina lutea (Test No. 1, read-out: P (mm), zone of inhibition); 43 mm with Sarcina lutea (Test No. 1, unlabelled sum line, read-out: P (mm), total of the three zones); 18 mm with Sarcina lutea (Test No. 3, read-out: P (mm), zone of inhibition); 49 mm with Sarcina lutea (Test No. 3, unlabelled sum line, read-out: P (mm), total of the three zones). For the same molecule, the “P (mm), zone of inhibition” value is 16 mm and 15 mm in the data set on Sarcina lutea (Test No 2); 15 mm and 16 mm in the data set on Sarcina lutea (Test No. 1); 16 mm and 15 mm in the data set with Sarcina lutea (Test No. 3).
On to `CC/C(=C(\c1ccccc1)c1ccc(OCCN(C)C)cc1)c1ccccc1` [Tamoxifen], for which the “LD50 from curves of percent inhibition of proliferation” value in [6] came to 345 µM.
Take `CN(Cc1cnc2nc(N)nc(N)c2n1)c1ccc(C(=O)N[C@@H](CCC(=O)O)C(=O)O)cc1` [methotrexate, reference compound]: the “Anti-proliferative activity against CaSKi” value in [7] is “lacked activity”.

The record behind these values is patent US7956088B2, “Synthetic lactone formulations and methods of use” (priority 2002, dated 2011).
